Reference: PubChem BioAssay (NCI)
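Five concentrations, 48 hours, 96-well plates. GI50 = concentration required for 50% inhibition of growth. The concentration for full growth arrest is given as TGI.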

What was measured:
Experiment in all cases: NCI anticancer screen, dose series, 48 h
[1] = tested on: NCI-H460 lung
[2] = tested on: CCRF-CEM leukemia
[3] = tested on: SK-OV-3 ovarian
[4] = tested on: SN12C renal
[5] = tested on: OVCAR-3 ovarian
[6] = tested on: RXF 393 renal
[7] = tested on: SNB-19 CNS
[8] = tested on: HCC-2998 colon
[9] = tested on: U251 CNS
[10] = tested on: HCT-15 colon
[11] = tested on: RPMI-8226 leukemia
[12] = tested on: UO-31 renal
[13] = tested on: CAKI-1 renal
[14] = tested on: IGROV1 ovarian
[15] = tested on: HL-60(TB) leukemia
[16] = tested on: OVCAR-5 ovarian
[17] = tested on: SW-620 colon
[18] = tested on: COLO 205 colon
[19] = tested on: NCI-H522 lung
[20] = tested on: UACC-62 melanoma
[21] = tested on: SF-295 CNS
[22] = tested on: 786-0 renal
[23] = tested on: NCI/ADR-RES ovarian
[24] = tested on: ACHN renal
[25] = tested on: MALME-3M melanoma
[26] = tested on: NCI-H23 lung
[27] = tested on: MDA-N
[28] = tested on: HOP-62 NSCLC
[29] = tested on: OVCAR-4 ovarian
[30] = tested on: A549 NSCLC
[31] = tested on: HCT-116 colon
[32] = tested on: SR leukemia
[33] = tested on: HS 578T breast
[34] = tested on: NCI-H226 lung
[35] = tested on: HOP-92 NSCLC
[36] = tested on: K-562 leukemia
[37] = tested on: SK-MEL-2 melanoma
[38] = tested on: A498 renal
[39] = tested on: SF-268 CNS
[40] = tested on: SK-MEL-28 melanoma
[41] = tested on: EKVX NSCLC
[42] = tested on: MOLT-4 leukemia
[43] = tested on: MDA-MB-231 breast
[44] = tested on: KM12 colon
[45] = tested on: OVCAR-8 ovarian
[46] = tested on: PC-3 prostate
[47] = tested on: HT29 colon
[48] = tested on: DU-145 prostate
[49] = tested on: UACC-257 melanoma
[50] = tested on: T-47D breast
[51] = tested on: MDA-MB-435
[52] = tested on: TK-10 renal
[53] = tested on: M14 melanoma
[54] = tested on: SF-539 CNS
[55] = tested on: LOX IMVI melanoma
[56] = tested on: SK-MEL-5 melanoma
[57] = tested on: BT-549 breast
[58] = tested on: SNB-75 CNS
[59] = tested on: MCF7 breast

Q: With `CCOC(=O)/C(C(=S)NC)=C(/N)N1CCCC1` as the molecule, how does the TGI [1] read?
A: > 100 µM

Q: And the TGI [2]?
A: > 100 µM

Q: What about the TGI [3] of the same molecule?
A: > 100 µM

Q: And the TGI [4]?
A: > 100 µM

Q: And the TGI [5]?
A: > 100 µM

Q: What about the TGI [6] of the same molecule?
A: > 100 µM

Q: What about the TGI [7] of the same molecule?
A: > 100 µM

Q: What about the TGI [8] of the same molecule?
A: > 100 µM

Q: What about the TGI [9] of the same molecule?
A: > 100 µM

Q: And the TGI [10]?
A: > 100 µM

Q: And the TGI [11]?
A: > 100 µM

Q: What about the TGI [12] of the same molecule?
A: > 100 µM

Q: And the TGI [13]?
A: > 100 µM

Q: And the TGI [14]?
A: > 100 µM

Q: And the TGI [15]?
A: > 100 µM

Q: And the TGI [16]?
A: > 100 µM

Q: And the TGI [17]?
A: > 100 µM

Q: And the TGI [18]?
A: > 100 µM

Q: What about the TGI [19] of the same molecule?
A: > 100 µM

Q: What about the TGI [20] of the same molecule?
A: > 100 µM

Q: And the TGI [21]?
A: > 100 µM

Q: And the TGI [22]?
A: > 100 µM

Q: And the TGI [23]?
A: > 100 µM

Q: What about the TGI [24] of the same molecule?
A: > 100 µM

Q: And the TGI [25]?
A: > 100 µM

Q: What about the TGI [26] of the same molecule?
A: > 100 µM

Q: And the TGI [27]?
A: > 100 µM

Q: And the TGI [28]?
A: > 100 µM

Q: And the TGI [29]?
A: > 100 µM

Q: What about the TGI [30] of the same molecule?
A: > 100 µM

Q: And the TGI [31]?
A: > 100 µM

Q: What about the TGI [32] of the same molecule?
A: > 100 µM

Q: And the TGI [33]?
A: > 100 µM

Q: And the TGI [34]?
A: > 100 µM

Q: And the TGI [35]?
A: > 100 µM

Q: And the TGI [36]?
A: > 100 µM

Q: What about the TGI [37] of the same molecule?
A: > 100 µM

Q: What about the TGI [38] of the same molecule?
A: > 100 µM

Q: What about the TGI [39] of the same molecule?
A: > 100 µM

Q: What about the TGI [40] of the same molecule?
A: > 100 µM

Q: What about the TGI [41] of the same molecule?
A: > 100 µM

Q: What about the TGI [42] of the same molecule?
A: > 100 µM

Q: And the TGI [43]?
A: > 100 µM

Q: What about the TGI [44] of the same molecule?
A: > 100 µM

Q: What about the TGI [45] of the same molecule?
A: > 100 µM

Q: And the TGI [46]?
A: > 100 µM

Q: What about the TGI [47] of the same molecule?
A: > 100 µM

Q: And the TGI [48]?
A: > 100 µM

Q: And the TGI [49]?
A: > 100 µM

Q: What about the TGI [50] of the same molecule?
A: > 100 µM

Q: And the TGI [51]?
A: > 100 µM

Q: What about the TGI [52] of the same molecule?
A: > 100 µM

Q: What about the TGI [53] of the same molecule?
A: > 100 µM

Q: And the TGI [54]?
A: > 100 µM

Q: And the TGI [55]?
A: > 100 µM

Q: And the TGI [56]?
A: > 100 µM

Q: How did the TGI [3] turn out when `COc1cc2cc(c1Cl)N(C)C(=O)CC(OC(=O)C(C)C)C1(C)OC1C(C)C1CC(O)(NC(=O)O1)C(OC)/C=C/C=C(C)C2` (stereo not drawn) was run?
A: 53.4 µM

Q: What about the TGI [4] of the same molecule?
A: 46.7 µM

Q: And the TGI [11]?
A: 12.9 µM

Q: And the TGI [12]?
A: 18.9 µM

Q: What about the TGI [13] of the same molecule?
A: 19.1 µM

Q: And the TGI [16]?
A: 38.6 µM

Q: And the TGI [22]?
A: 30.6 µM

Q: What about the GI50 [24] of the same molecule?
A: 0.0126 µM

Q: What about the TGI [25] of the same molecule?
A: 25.1 µM

Q: What about the TGI [26] of the same molecule?
A: 48.5 µM

Q: What about the TGI [27] of the same molecule?
A: 1.41 µM

Q: And the TGI [57]?
A: 82.9 µM

Q: And the TGI [28]?
A: 62 µM

Q: And the TGI [29]?
A: 40.8 µM

Q: What about the TGI [30] of the same molecule?
A: 33.1 µM

Q: And the TGI [31]?
A: 13.8 µM

Q: And the TGI [38]?
A: 36.7 µM

Q: And the TGI [39]?
A: 15.4 µM

Q: What about the GI50 [40] of the same molecule?
A: 17.6 µM

Q: And the TGI [41]?
A: 16.6 µM

Q: What about the TGI [49] of the same molecule?
A: 23.8 µM

Q: What about the GI50 [50] of the same molecule?
A: 29.1 µM

Q: And the TGI [52]?
A: 36.4 µM

Q: For `N#CC12COC3(CCCCC3C1(C#N)C#N)OC2=N` (stereo not drawn), which TGI [1] is on record?
A: 29.4 µM

Q: And the TGI [2]?
A: 22.3 µM

Q: What about the TGI [3] of the same molecule?
A: > 100 µM

Q: And the TGI [4]?
A: 24.8 µM

Q: And the TGI [5]?
A: 23.1 µM

Q: What about the TGI [6] of the same molecule?
A: 25.8 µM

Q: What about the TGI [7] of the same molecule?
A: 36 µM

Q: And the TGI [9]?
A: 45.5 µM

Q: And the TGI [12]?
A: 30.6 µM

Q: And the TGI [13]?
A: 14.2 µM

Q: What about the TGI [14] of the same molecule?
A: 27.7 µM

Q: What about the TGI [16] of the same molecule?
A: 30.4 µM

Q: And the TGI [17]?
A: > 100 µM

Q: What about the TGI [18] of the same molecule?
A: 19.2 µM

Q: And the TGI [20]?
A: 33.9 µM

Q: And the TGI [21]?
A: 43.1 µM

Q: What about the TGI [22] of the same molecule?
A: > 100 µM

Q: And the TGI [23]?
A: > 100 µM

Q: What about the TGI [24] of the same molecule?
A: 30.1 µM

Q: And the TGI [25]?
A: 35.6 µM

Q: And the TGI [26]?
A: 37.2 µM

Q: What about the TGI [27] of the same molecule?
A: 25.5 µM

Q: What about the TGI [57] of the same molecule?
A: 30.5 µM

Q: And the TGI [30]?
A: 66.8 µM

Q: And the TGI [31]?
A: 25.1 µM

Q: And the TGI [33]?
A: 44.7 µM

Q: And the TGI [34]?
A: 71.2 µM

Q: What about the TGI [35] of the same molecule?
A: 18.5 µM

Q: What about the TGI [36] of the same molecule?
A: > 100 µM

Q: What about the TGI [37] of the same molecule?
A: 25.3 µM

Q: What about the TGI [38] of the same molecule?
A: 39.3 µM

Q: And the TGI [39]?
A: 25.3 µM

Q: What about the TGI [40] of the same molecule?
A: 46.8 µM

Q: What about the TGI [41] of the same molecule?
A: 48.8 µM

Q: What about the TGI [42] of the same molecule?
A: 79.7 µM

Q: And the TGI [43]?
A: 33.3 µM

Q: What about the TGI [46] of the same molecule?
A: 27.3 µM

Q: And the TGI [47]?
A: 26.1 µM

Q: And the TGI [48]?
A: 28.7 µM

Q: And the TGI [58]?
A: 35.2 µM

Q: And the TGI [49]?
A: 34.1 µM

Q: And the TGI [50]?
A: 26.7 µM

Q: And the TGI [59]?
A: 29.5 µM

Q: What about the TGI [51] of the same molecule?
A: 64.7 µM

Q: What about the TGI [52] of the same molecule?
A: 31.6 µM

Q: What about the TGI [53] of the same molecule?
A: 22.4 µM

Q: And the TGI [54]?
A: 27.5 µM

Q: What about the TGI [55] of the same molecule?
A: 30.3 µM

Q: And the TGI [56]?
A: 23.5 µM

Q: Which results are given for `NC(=O)c1cnc2sc3ccccc3n2c1=O`?
A: TGI [1]: > 100 µM; TGI [2]: > 100 µM; TGI [3]: > 100 µM; TGI [4]: > 100 µM; TGI [5]: > 100 µM; TGI [6]: > 100 µM; TGI [7]: > 100 µM; TGI [8]: > 100 µM; TGI [10]: > 100 µM; TGI [11]: > 100 µM; TGI [12]: > 100 µM; TGI [13]: > 100 µM; TGI [14]: > 100 µM; TGI [15]: > 100 µM; TGI [16]: > 100 µM; TGI [17]: > 100 µM; TGI [18]: > 100 µM; TGI [19]: > 100 µM; TGI [20]: > 100 µM; TGI [21]: > 100 µM; TGI [22]: > 100 µM; TGI [23]: > 100 µM; TGI [24]: > 100 µM; TGI [25]: > 100 µM; TGI [27]: > 100 µM; TGI [57]: > 100 µM; TGI [28]: > 100 µM; TGI [29]: > 100 µM; TGI [30]: > 100 µM; TGI [31]: > 100 µM; TGI [32]: > 100 µM; TGI [33]: > 100 µM; TGI [34]: > 100 µM; TGI [35]: > 100 µM; TGI [36]: > 100 µM; TGI [37]: > 100 µM; TGI [39]: > 100 µM; TGI [40]: > 100 µM; TGI [41]: > 100 µM; TGI [42]: > 100 µM; TGI [43]: > 100 µM; TGI [44]: > 100 µM; TGI [45]: > 100 µM; TGI [46]: > 100 µM; TGI [47]: > 100 µM; TGI [48]: > 100 µM; TGI [58]: > 100 µM; TGI [49]: > 100 µM; TGI [50]: > 100 µM; TGI [59]: > 100 µM; TGI [52]: > 100 µM; TGI [53]: > 100 µM; TGI [54]: > 100 µM; TGI [55]: > 100 µM; TGI [56]: > 100 µM
